Experimental data from paper PMC3042124 (Organic & biomolecular chemistry, 2010).

What was measured:
Format in all cases: biochemical
[1] = molecular target: β5 subunit of the constitutive proteasome (Homo sapiens, UniProt P20618+P28074)
[2] = molecular target: β2 subunit of the constitutive proteasome (Homo sapiens, UniProt P49720+Q99436)
[3] = molecular target: β1 subunit of the constitutive proteasome (Homo sapiens, UniProt P28072+Q99436)

| Compound | IC50 [1] | IC50 [2] | IC50 [3] |
| --- | --- | --- | --- |
| CCCC[C@H](NC(=O)[C@@H]1CCCN1C(=O)[C@H](C)NC(C)=O)C(=O)N[C@H](/C=C/S(=O)(=O)c1ccc(O)cc1)CC(C)C [Ia, Ac-Ala-Pro-Nle-Leu-4-hydroxyphenyl-vinylsulfone] | > 100 µM | > 100 µM | 4 ± 0.67 µM |
| COc1ccc(C[C@H](NC(=O)Cc2ccc3ccccc3c2)C(=O)N[C@@H](Cc2ccccc2)C(=O)N[C@H](/C=C/S(=O)(=O)c2ccc(O)cc2)CC(C)C)cc1 [IIa, (Tyr(Me)-Phe-Leu-4-hydroxyphenyl-vinylsulfone)-2-(naphthalen-2-yl)-acetamide] | 0.07 ± 0.01 µM | 78 ± 23 µM | 32 ± 16 µM |
| COc1ccc(C[C@H](NC(=O)Cc2ccc3ccccc3c2)C(=O)N[C@@H](Cc2ccccc2)C(=O)N[C@H](/C=C/S(C)(=O)=O)CC(C)C)cc1 [IIb, (Tyr(Me)-Phe-Leu-methyl-vinylsulfone)-2-(naphthalen-2-yl)-acetamide] | 0.11 ± 0.02 µM | > 100 µM | > 100 µM |
| CCCC[C@H](NC(=O)[C@@H]1CCCN1C(=O)[C@H](C)NC(C)=O)C(=O)N[C@H](/C=C/S(C)(=O)=O)CC(C)C [Ib, Ac-Ala-Pro-NLe-Leu-methyl-vinylsulfone] | > 100 µM | > 100 µM | 7.8 ± 0.86 µM |
